Test results: patent publication US6479435B1, “Diaryl ethers and processes for their preparation and herbicidal and desiccant compositions containing them” (ISK Americas Incorporated, priority 1997, dated 2002)

Legend:
Type in all cases: in vivo
[1] = system: velvetleaf (Abutilon theophrasti, ABUTH); test: Pre-emerge greenhouse herbicide test, phytotoxicity rating; conditions: Abutilon theophrasti, pre-emergence, 336 h, 14 days after application, rating scale 0-100; for pest or weed control at 125 g/ha: Rate 125 g al/ha; for pest or weed control at 500 g/ha: Rate 500 g al/ha
Outline: (§1)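 Seeds sown in sandy loam mix one day before track-sprayer application of compounds in acetone at 125–1000 g ai/ha (187 l/ha), then surface-watered to incorporate and bottom-watered. Visual rating 14 days after application on a 0–100 scale (0 = no damage, 100 = all plants dead).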

[2] = system: green foxtail (Setaria viridis, SETVI); test: as above; conditions: Setaria viridis, pre-emergence, 336 h, 14 days after application, rating scale 0-100; for pest or weed control at 125 g/ha: Rate 125 g al/ha; for pest or weed control at 500 g/ha: Rate 500 g al/ha
Outline: as §1

[3] = system: ivyleaf morningglory (Ipomoea hederacea, IPOHE); test: as above; conditions: Ipomoea, pre-emergence, 336 h, 14 days after application, rating scale 0-100; for pest or weed control at 125 g/ha: Rate 125 g al/ha; for pest or weed control at 500 g/ha: Rate 500 g al/ha
Outline: as §1

[4] = system: lambsquarters (Chenopodium album, CHEAL); test: as above; conditions: Chenopodium album, pre-emergence, 336 h, 14 days after application, rating scale 0-100; for pest or weed control at 125 g/ha: Rate 125 g al/ha; for pest or weed control at 500 g/ha: Rate 500 g al/ha
Outline: as §1

[5] = system: redroot pigweed (Amaranthus retroflexus, AMARE); test: as above; conditions: Amaranthus retroflexus, pre-emergence, 336 h, 14 days after application, rating scale 0-100; for pest or weed control at 125 g/ha: Rate 125 g al/ha; for pest or weed control at 500 g/ha: Rate 500 g al/ha
Outline: as §1

[6] = system: large crabgrass (Digitaria sanguinalis, DIGSA); test: as above; conditions: Digitaria sanguinalis, pre-emergence, 336 h, 14 days after application, rating scale 0-100; for pest or weed control at 125 g/ha: Rate 125 g al/ha; for pest or weed control at 500 g/ha: Rate 500 g al/ha
Outline: as §1

[7] = system: Johnsongrass (Sorghum halepense, SORHA); test: Post-emerge greenhouse herbicide test, phytotoxicity rating; conditions: Sorghum halepense, post-emergence, 336 h, 14 days after application, scale 0-100; for pest or weed control at 63 g/ha: rate 63 g ai/ha; for pest or weed control at 500 g/ha: rate 500 g ai/ha
Outline: (§2)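 Compounds in acetone with 0.25% v/v non-ionic surfactant were track-sprayed at 187 l/ha over plants at the 2-3 leaf stage, at 63 to 1000 g ai/ha. Pots were bottom-watered. Injury was scored visually 14 days later on a 0-100 scale, where 0 is no damage and 100 is complete plant death.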

[8] = system: velvetleaf (Abutilon theophrasti, ABUTH); test: as above; conditions: Abutilon theophrasti, post-emergence, 336 h, 14 days after application, scale 0-100; for pest or weed control at 63 g/ha: rate 63 g ai/ha; for pest or weed control at 500 g/ha: rate 500 g ai/ha
Outline: as §2

[9] = system: barnyardgrass (Echinochloa crusgalli, ECHCG); test: as above; conditions: Echinochloa crus-galli, post-emergence, 336 h, 14 days after application, scale 0-100; for pest or weed control at 63 g/ha: rate 63 g ai/ha; for pest or weed control at 500 g/ha: rate 500 g ai/ha
Outline: as §2

[10] = system: green foxtail (Setaria viridis, SETVI); test: as above; conditions: Setaria viridis, post-emergence, 336 h, 14 days after application, scale 0-100; for pest or weed control at 63 g/ha: rate 63 g ai/ha; for pest or weed control at 500 g/ha: rate 500 g ai/ha
Outline: as §2

[11] = system: ivyleaf morningglory (Ipomoea hederacea, IPOHE); test: as above; conditions: Ipomoea, post-emergence, 336 h, 14 days after application, scale 0-100; for pest or weed control at 63 g/ha: rate 63 g ai/ha; for pest or weed control at 500 g/ha: rate 500 g ai/ha
Outline: as §2

[12] = system: lambsquarters (Chenopodium album, CHEAL); test: as above; conditions: Chenopodium album, post-emergence, 336 h, 14 days after application, scale 0-100; for pest or weed control at 63 g/ha: rate 63 g ai/ha; for pest or weed control at 500 g/ha: rate 500 g ai/ha
Outline: as §2

[13] = system: sicklepod (Cassia obtusifolia, CASOB); test: as above; conditions: Senna obtusifolia, post-emergence, 336 h, 14 days after application, scale 0-100; for pest or weed control at 63 g/ha: rate 63 g ai/ha; for pest or weed control at 500 g/ha: rate 500 g ai/ha
Outline: as §2

[14] = system: redroot pigweed (Amaranthus retroflexus, AMARE); test: as above; conditions: Amaranthus retroflexus, post-emergence, 336 h, 14 days after application, scale 0-100; for pest or weed control at 63 g/ha: rate 63 g ai/ha; for pest or weed control at 500 g/ha: rate 500 g ai/ha
Outline: as §2

[15] = system: large crabgrass (Digitaria sanguinalis, DIGSA); test: as above; conditions: Digitaria sanguinalis, post-emergence, 336 h, 14 days after application, scale 0-100; for pest or weed control at 63 g/ha: rate 63 g ai/ha; for pest or weed control at 500 g/ha: rate 500 g ai/ha
Outline: as §2

Nn1c(C(F)(F)F)cc(=O)n(-c2cc(Oc3ccccc3C(F)(F)F)c(Cl)cc2F)c1=O [Compound 9-24, 1-amino-3-[4-chloro-2-fluoro-5-(2-trifluoromethylphenoxy)phenyl]-6-trifluoromethyl-1,2,3,4-tetrahydropyrimidine-2,4-dione]
pest or weed control at 125 g/ha [1]: 99%
pest or weed control at 500 g/ha [1]: 100%
pest or weed control at 125 g/ha [2]: 100%
pest or weed control at 500 g/ha [2]: 100%
pest or weed control at 125 g/ha [3]: 30%
pest or weed control at 500 g/ha [3]: 30%
pest or weed control at 125 g/ha [4]: 100%
pest or weed control at 500 g/ha [4]: 100%
pest or weed control at 125 g/ha [5]: 95%
pest or weed control at 500 g/ha [5]: 100%
pest or weed control at 125 g/ha [6]: 90%
pest or weed control at 500 g/ha [6]: 100%
pest or weed control at 63 g/ha [7]: 30%
pest or weed control at 500 g/ha [7]: 70%
pest or weed control at 63 g/ha [8]: 100%
pest or weed control at 500 g/ha [8]: 100%
pest or weed control at 63 g/ha [9]: 30%
pest or weed control at 500 g/ha [9]: 90%
pest or weed control at 63 g/ha [10]: 70%
pest or weed control at 500 g/ha [10]: 95%
pest or weed control at 63 g/ha [11]: 100%
pest or weed control at 500 g/ha [11]: 100%
pest or weed control at 63 g/ha [12]: 100%
pest or weed control at 500 g/ha [12]: 100%
pest or weed control at 63 g/ha [13]: 30%
pest or weed control at 500 g/ha [13]: 80%
pest or weed control at 63 g/ha [14]: 100%
pest or weed control at 500 g/ha [14]: 100%
pest or weed control at 63 g/ha [15]: 40%
pest or weed control at 500 g/ha [15]: 75%

Nn1c(C(F)(F)F)cc(=O)n(-c2cc(Oc3ccccn3)c(Cl)cc2F)c1=O [Compound 9-15, 1-amino-3-[4-chloro-2-fluoro-5-(2pyridyloxy)phenyl]-6-trifluoromethyl-1,2,3,4-tetrahydropyrimidine-2,4-dione]
pest or weed control at 125 g/ha [1]: 100%
pest or weed control at 500 g/ha [1]: 100%
pest or weed control at 125 g/ha [2]: 100%
pest or weed control at 500 g/ha [2]: 100%
pest or weed control at 125 g/ha [3]: 100%
pest or weed control at 500 g/ha [3]: 100%
pest or weed control at 125 g/ha [4]: 100%
pest or weed control at 500 g/ha [4]: 100%
pest or weed control at 125 g/ha [5]: 100%
pest or weed control at 500 g/ha [5]: 100%
pest or weed control at 125 g/ha [6]: 100%
pest or weed control at 500 g/ha [6]: 10%
pest or weed control at 125 g/ha ([7]; rate 125 g ai/ha): 95%
pest or weed control at 500 g/ha [7]: 100%
pest or weed control at 125 g/ha ([8]; rate 125 g ai/ha): 100%
pest or weed control at 500 g/ha [8]: 100%
pest or weed control at 125 g/ha ([9]; rate 125 g ai/ha): 90%
pest or weed control at 500 g/ha [9]: 99%
pest or weed control at 125 g/ha ([10]; rate 125 g ai/ha): 95%
pest or weed control at 500 g/ha [10]: 100%
pest or weed control at 125 g/ha ([11]; rate 125 g ai/ha): 100%
pest or weed control at 500 g/ha [11]: 100%
pest or weed control at 125 g/ha ([12]; rate 125 g ai/ha): 100%
pest or weed control at 500 g/ha [12]: 100%
pest or weed control at 125 g/ha ([13]; rate 125 g ai/ha): 100%
pest or weed control at 500 g/ha [13]: 100%
pest or weed control at 125 g/ha ([14]; rate 125 g ai/ha): 100%
pest or weed control at 500 g/ha [14]: 100%
pest or weed control at 125 g/ha ([15]; rate 125 g ai/ha): 90%
pest or weed control at 500 g/ha [15]: 100%

Nn1c(C(F)(F)F)cc(=O)n(-c2cc(Oc3ccc([N+](=O)[O-])cc3C(F)(F)F)c(Cl)cc2F)c1=O [Compound 9-22, 1-Amino-3-[4-chloro-2-fluoro-5-(4-nitro-2-trifluoromethylphenoxy)phenyl]-6-trifluoromethyl-1,2,3,4-tetrahydropyrimidine-2,4-dione]
pest or weed control at 125 g/ha [1]: 100%
pest or weed control at 500 g/ha [1]: 100%
pest or weed control at 125 g/ha [2]: 90%
pest or weed control at 500 g/ha [2]: 100%
pest or weed control at 125 g/ha [3]: 90%
pest or weed control at 500 g/ha [3]: 80%
pest or weed control at 125 g/ha [4]: 100%
pest or weed control at 500 g/ha [4]: 100%
pest or weed control at 125 g/ha [5]: 100%
pest or weed control at 500 g/ha [5]: 100%
pest or weed control at 125 g/ha [6]: 80%
pest or weed control at 500 g/ha [6]: 100%
pest or weed control at 63 g/ha [7]: 0%
pest or weed control at 500 g/ha [7]: 80%
pest or weed control at 63 g/ha [8]: 100%
pest or weed control at 500 g/ha [8]: 100%
pest or weed control at 63 g/ha [9]: 20%
pest or weed control at 500 g/ha [9]: 90%
pest or weed control at 63 g/ha [10]: 10%
pest or weed control at 500 g/ha [10]: 80%
pest or weed control at 63 g/ha [11]: 100%
pest or weed control at 500 g/ha [11]: 100%
pest or weed control at 63 g/ha [12]: 40%
pest or weed control at 500 g/ha [12]: 100%
pest or weed control at 63 g/ha [13]: 30%
pest or weed control at 500 g/ha [13]: 70%
pest or weed control at 63 g/ha [14]: 100%
pest or weed control at 500 g/ha [14]: 100%
pest or weed control at 63 g/ha [15]: 10%
pest or weed control at 500 g/ha [15]: 50%
